Reference: PMC9929232, “On-demand male contraception via acute inhibition of soluble adenylyl cyclase” (Nature Communications, 2023)
Where “and” joins values, the source holds several entries; their conditions need not be identical. Equal values may be shown once. Entries after “also recorded” stand apart in the source; their conditions may differ. Values belong to the molecule of their own block, whether it stands above or below them.

Experiments:
[1] = target: T1, sAC-overexpressing rat 4-4 cells (Rattus norvegicus, UniProt Q9Z286); assay: Cellular cAMP accumulation in sAC-overexpressing 4-4 cells;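 for cAMP accumulated (%): percent of DMSO-treated control cAMP accumulation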; assay type: cell-based; parameters: cAMP accumulated: unit not given here; conditions: for cAMP accumulated (%): Fig. 1d normalized replicates; for cAMP accumulated: Fig. 1d replicates
T1 construct: expressed in transfected cells
T1 sequence (Q9Z286 1-469 limits assumed): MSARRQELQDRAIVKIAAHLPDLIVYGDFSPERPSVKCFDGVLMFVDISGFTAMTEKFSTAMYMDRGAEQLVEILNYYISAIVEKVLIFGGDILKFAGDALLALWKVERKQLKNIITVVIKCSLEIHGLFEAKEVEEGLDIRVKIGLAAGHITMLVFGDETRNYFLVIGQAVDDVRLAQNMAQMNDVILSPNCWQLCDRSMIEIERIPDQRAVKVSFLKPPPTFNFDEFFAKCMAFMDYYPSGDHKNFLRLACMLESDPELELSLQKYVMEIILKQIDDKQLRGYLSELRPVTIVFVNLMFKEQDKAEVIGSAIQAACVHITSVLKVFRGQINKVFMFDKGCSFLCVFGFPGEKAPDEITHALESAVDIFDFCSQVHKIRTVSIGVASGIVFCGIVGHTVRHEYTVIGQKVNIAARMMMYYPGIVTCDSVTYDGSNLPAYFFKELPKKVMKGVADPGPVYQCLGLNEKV
Experimental: sAC-overexpressing rat 4-4 cells were generated and functionally authenticated in our laboratory as previously described[33] and grown in DMEM + 10% FBS. Cells were maintained at 37 °C in 5% CO2 and were periodically checked for mycoplasma contamination.
To assess potency in a cellular system, we utilized 4-4 cells, which stably overexpress sAC[20],[33],[56]. Cellular levels of cAMP reflect a balance between its synthesis by adenylyl cyclases and its degradation by phosphodiesterases (PDEs). […] On the day prior to the assay, 5 × 10^6 cells/ml were seeded in 24-well plates in DMEM with 10% FBS. To measure sAC-dependent cAMP accumulation, cells were pretreated for 10 min with the respective inhibitor at the indicated concentrations or DMSO as control in 300 µl fresh media. Cyclic AMP accumulation was initiated by the addition of 500 µM IBMX, and after 5 min, the media was removed, and the cells were lysed with 250 µl 0.1 M HCl by shaking at 700 rpm for 10 min.

[2] = system: ejaculated uterine mouse sperm; assay: cAMP in ejaculated uterine mouse sperm from injected males; assay type: in vivo
Experimental: (§1) For analysis of ejaculated uterine mouse sperm, the uteri of females with mating plugs were removed and placed into 1 ml TYH buffer.

[3] = system: ejaculated uterine mouse sperm; assay: Motility (CASA) of ejaculated uterine mouse sperm from injected males; assay type: in vivo; parameters: hyperactivated motility (%): concentration or dose not given beside the values
Experimental: as §1
For ex vivo assessment of mouse sperm from inhibitor-treated mice, sperm (25 µl) isolated at the indicated time points (15 min to 24 hours post-injection) diluted 1:5 in non-capacitating TYH buffer were loaded on a […] Leja slide (Hamilton Thorne) and placed on a microscope stage at 37 °C. Sperm movements of 10 fields of at least 200 sperm were examined using computer-assisted sperm analysis (CASA) via Hamilton–Thorne digital image analyzer (IVOS II, Hamilton Thorne Research, Beverly, MA) with the following parameters: 30 frames, frame rate: 60 Hz, cell size: 30–170 μm^2. Ejaculated uterine mouse sperm were recorded without additional dilution. Sperm were considered motile when presenting STR ≥80% and VAP ≥50 μm/s and hyperactivated when presenting VCL ≥270 μm/s, LIN < 50%, and ALH ≥7 μm. Track´s color code: motile (green), progressive (turquoise), hyperactivated (purple), slow (pink), static (red), not counted due to late entry (yellow).

fertility of male mice = assay: Timed mouse mating (contraceptive efficacy); assay type: in vivo; conditions: for Contraceptive efficacy: vs vehicle
Experimental: Single-housed naive (i.e., uninjected and virgin) male and female C57Bl/6 mice were acclimatized to a reverse light cycle (dark: 11 AM to 11 PM) for at least 2 weeks. […] Pregnancy and litter size was assessed in two ways. Either female were sacrificed 7 days following mating and implanted embryos counted, or females were permitted to go to term (21 days) and pups counted. A subset of the pups (both male and female) born from breakthrough pregnancies were permitted to mature and their fertility was assessed in standard matings.

[4] = Pharmacokinetic analysis of TDI-11861 in blood and tissues (LC-MS); assay type: in vivo, mouse; conditions: oral, 1 and 3 hours; caput and cauda epididymis, seminal vesicles, not testis
[5] = system: tmACs from each subfamily; conditions: cited from earlier work
over 310 kinases = conditions: cited from earlier work
hERG = conditions: cited from earlier work
[6] = cited from earlier work
[7] = cited from earlier work; remark: listed apart in the source
[8] = Fig. 4a replicates, ejaculated uterine sperm, 2 hours after 50 mg/kg i.p.
[9] = 50 mg/kg i.p., mating period 0.5–2.5 hours, 2 hours
[10] = 50 mg/kg i.p., mating period 1–9 hours, 8 hours

cAMP accumulated (%) ([1]; printed 0.477121): 0%
Compound: Cc1c(Cc2ccccc2)c(-c2cc(Cl)nc(N)n2)nn1C [TDI-10229, reference compound]
cAMP accumulated (%) ([1]; printed 0): 3.303% and 10.629% and 8.51% and 2.193% and 5.92% and 3.107% and 22.11% and 16.4972% and 11.8328% and 5.524% and 4.206% and 1.889% and 2.077%
cAMP accumulated (%) ([1]; printed -0.52288): 40.0361% and 25.5301% and 16.8792% and 12.1343% and 19.6251% and 46.0455% and 19.6826% and 32.1271% and 49.6122% and 23.5829% and 24.3244% and 21.4812% and 12.9118%
cAMP accumulated (%) ([1]; printed -1): 53.928% and 46.3142% and 43.7516% and 31.429% and 23.6328% and 79.7321% and 41.9299% and 71.9606% and 102.407% and 49.6166% and 29.8946% and 34.6849% and 30.4462%
cAMP accumulated (%) ([1]; printed -1.47712): 63.9701% and 48.7859% and 51.356% and 54.7326% and 51.5128% and 120.896% and 78.187% and 107.566% and 161.903% and 63.1342%
cAMP accumulated ([1]; concentration (uM) -1.95424 [sic]): 47.248 and 20.896 and 22.932 and 53.28 and 23.028 and 39.526 and 63.525 and 88.135 and 120.985 and 194.007 and 68.902 and 22.685
cAMP accumulated ([1]; concentration (uM) -2.43136 [sic]): 48.561 and 22.294 and 31.915 and 66.057 and 37.215 and 54.337 and 58.571 and 46.103 and 61.044 and 66.819 and 131.064 and 78.712 and 23.002
cAMP accumulated ([1]; concentration (uM) -2.90848 [sic]): 49.13 and 27.611 and 32.179 and 77.343 and 38.522 and 35.67 and 62.766 and 41.76 and 54.941 and 113.858 and 170.305 and 78.712 and 23.104

Compound: Nc1nc(Cl)cc(-c2nn(C(F)F)cc2Cc2ccccc2OCCN2CCOC[C@@H]2CO)n1 [TDI-11861]
bicarbonate-induced cAMP in ejaculated sperm ([2]; 50 mg/kg i.p., retrieved from uterus): no bicarbonate-induced increase in cAMP
cAMP, capacitating media [2, 8]: 0.692 pmol/10^6 sperm and 0.283 pmol/10^6 sperm and 0.5995 pmol/10^6 sperm and 0.72 pmol/10^6 sperm and 1.204 pmol/10^6 sperm and 0.492 pmol/10^6 sperm and 0.468 pmol/10^6 sperm and 0.24 pmol/10^6 sperm
cAMP, non-capacitating media [2, 8]: 0.738 pmol/10^6 sperm and 1.2045 pmol/10^6 sperm and 0.9637 pmol/10^6 sperm and 0.847 pmol/10^6 sperm and 1.232 pmol/10^6 sperm and 0.679 pmol/10^6 sperm and 0.436 pmol/10^6 sperm and 0.514 pmol/10^6 sperm
motility of ejaculated sperm ([3]; 50 mg/kg i.p., retrieved from uterus post-coitus): immotile
progressive motility (%) ([3]; Fig. 4b, ejaculated sperm): 4.7% and 5.3% and 8.9% and 7% and 4% and 4.75% and 3.2%
hyperactivated motility (%) ([3]; Fig. 4c, ejaculated sperm): 1.4% and 0.8% and 0.5% and 0.9% and 1.1%
mating behavior and mating frequency versus vehicle-injected males (fertility of male mice; 50 mg/kg i.p.): same frequency as vehicle-injected males; also recorded: indistinguishable
Pregnancy rate (fertility of male mice; 50 mg/kg i.p., mating period 0.5–2.5 hours post injection, mating time 2 hours): 0%
Pregnancy pairings (pregnancies/pairings) (fertility of male mice; [9]): zero females became pregnant in 52 pairings; also recorded: (0/52)
Contraceptive efficacy (fertility of male mice; [9]): 100%
Contraceptive efficacy (fertility of male mice; 50 mg/kg i.p., mating period 0.5–[…], 3 hours): 91%
Pregnancy rate (fertility of male mice; 50 mg/kg i.p., mating period 0.5–[…], mating time 3 hours): 2.2%
Pregnancy pairings (pregnancies/pairings) (fertility of male mice; [10]): 5 pregnancies out of 55 and (5/55)
Contraceptive efficacy (fertility of male mice; [10]): 78%
Pregnancy rate (fertility of male mice; 50 mg/kg i.p., mating period 1–9 hours, mating time 8 hours): 9.1%
Pregnancy pairings (pregnancies/pairings) (fertility of male mice; 50 mg/kg i.p., mating period 24–120 hours, 96 hours): (13/15)
Pregnancy rate (fertility of male mice; 50 mg/kg i.p., mating period 24–120 hours, mating time 96 hours (recovery)): 87%
health of F1 progeny from breakthrough pregnancies (fertility of male mice; male and female F1): matured normally into fertile adults
levels in tissues versus blood [4]: correlated well with its concentration in blood
activity against tmACs [5]: no activity
activity against over 310 kinases (over 310 kinases): no significant activity
activity in hERG electrophysiology studies (hERG): no significant activity
activity in glutathione trapping assays [6]: no significant activity
activity in AMES assays [7]: no significant activity
